Measured values from PubChem BioAssay (NCI).
“And” between values parts separate entries of the source, which are not always exact repeats. Equal values may be shown once.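 Test compounds were applied to cells in 96-well plates for 48 hours at 5 doses. Abbreviation: GI50, concentration required for 50% inhibition of growth. At the TGI there is no net growth.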

Experiments:
Test in all cases: inhibition of tumour cell growth, NCI panel, 48 h
[1] = system: MDA-MB-468 breast
[2] = system: ACHN renal
[3] = system: HL-60(TB) leukemia
[4] = system: HS 578T breast
[5] = system: NCI/ADR-RES ovarian
[6] = system: OVCAR-5 ovarian
[7] = system: RXF 393 renal
[8] = system: SK-MEL-28 melanoma
[9] = system: SNB-75 CNS

CC[C@@H](C(=O)[C@@H](C)[C@@H](O)[C@H](C)[C@@H]1O[C@@H]([C@@H](CC)C(=O)O)CC[C@@H]1C)[C@H]1OC2(C=C[C@@H](O)[C@]3(CC[C@@](C)([C@H]4CC[C@](O)(CC)[C@H](C)O4)O3)O2)[C@H](C)C[C@@H]1C (some centres not stated)
GI50 [1]: 150 nM
TGI [1]: 1.95 µM

COC(=O)[C@@]1(C)CC[C@]2(C)CC[C@]3(C)C4=CC=C5C(=CC(=O)C(O)=C5C)[C@]4(C)CC[C@@]3(C)[C@@H]2C1
GI50 [1]: 165 nM
TGI [1]: 0.359 µM

CCCCN(CCCC)CCCN=c1nc2c(c(N)n1-c1ccccc1)c(=S)n(-c1ccccc1)c(=S)n2-c1ccccc1
GI50 [1]: 218 nM
TGI [1]: 0.518 µM

CN(C)CCCNc1nccc(-c2c(-c3ccc(F)cc3)nn3cc(C(F)(F)F)ccc23)n1
GI50 [1]: 3030 nM
TGI [1]: 7.35 µM

C#CCNC(=O)CC[C@]1(C)[C@H]2CC[C@@H]3[C@@H]([C@@](C)(O)CCC=C(C)C)CC[C@@]3(C)[C@]2(C)CC[C@H]1C(=C)C
GI50 [1]: 33600 nM
TGI [1]: > 100 µM

COc1ccc(-c2cc(/C=C3\C(=O)Nc4ccc(OC)cc43)[nH]n2)cc1
GI50 [1]: 3710 nM
TGI [1]: > 100 µM

COc1cccc(C2C3=C(COC3=O)N(CCO)c3cc4c(cc32)OCCO4)c1 (configuration not stated)
GI50 [1]: 68.4 nM
TGI [1]: 1.27 µM

Cn1cc(C[C@@H](N)C(=O)O)c2ccccc21
GI50 [1]: > 100000 nM
TGI [1]: > 100 µM

CCN(CC)CCCC(Nc1c2ccc(Cl)cc2nc2ccc(OC)cc12)c1ccc(F)cc1 (configuration not stated)
GI50 [1]: 1650 nM
TGI [1]: 3.22 µM

CC[C@H](C)n1cc(C)c2c(C(=O)NCc3c(C)cc(C)[nH]c3=O)cc(-c3ccc(N4CCNCC4)nc3)cc21
GI50 [1]: 2150 nM and 5090 nM
TGI [1]: 7.63 µM and 18.7 µM

COC(=O)Nc1nc2cc3c(cc2s1)OCCO3
GI50 [1]: 29200 nM
TGI [1]: > 50 µM

Nc1ccccc1NC(=O)c1ccc(CN2CCC/C(=C\c3cccc(Cl)c3)C2=O)cc1
GI50 [1]: 63.6 nM
TGI [1]: 5.9 µM

COc1cc(C2CC(c3cc(C)ccc3C)=NN2c2ccc(S(=O)(=O)NC(=O)NCc3ccccc3)cc2)cc(OC)c1OC (configuration not stated)
GI50 [1]: 2320 nM
TGI [1]: 5.53 µM

CN1CCN(Cc2ccc(NC(=O)c3ccc(C#N)c(C#Cc4cnc(N)c5ncccc45)c3)cc2C(F)(F)F)CC1
GI50 [1]: 16900 nM
TGI [1]: 63.5 µM

N#CN1CCC[C@H]1C(=O)N1CCc2c(-c3[nH]nc4ncccc34)cccc21
GI50 [1]: < 10 nM
TGI [1]: < 0.01 µM

COc1ccc(/C=C/c2cc(N3CCOCC3)c3cc(F)c(F)cc3n2)cc1OC
GI50 [1]: 277 nM
TGI [1]: 1.64 µM

C/C(=C\CCc1ccoc1)CC/C=C(\C)CCCN1CCC(CO)CC1
GI50 [1]: 1700 nM
TGI [1]: 4.45 µM

C=C1CCC2C3(C)COC(c4ccc(SC)cc4)OC3CCC2(C)C1C/C=C1/C(=O)OCC1O (configuration not stated)
GI50 [1]: 5340 nM
TGI [1]: 18.3 µM

CCCN(CCC)CCCNC(=O)c1cc2c(-c3ccc(OC)c(OC)c3)nn(C)c2s1
GI50 [1]: 14000 nM
TGI [1]: 34.5 µM

COc1ccc(Cc2cnc(NC(=O)c3sc4ccccc4c3Cl)s2)cc1
GI50 [1]: 416 nM
TGI [1]: > 100 µM

OC(COc1cccc2ccccc12)CN1CCN(c2ccccc2)CC1 (configuration not stated)
GI50 [1]: 16600 nM
TGI [1]: 31.1 µM

Cc1cc(-c2nc(-c3ccc(OC(F)(F)F)cc3)no2)nn1Cc1ccnc(N2CCN(C3CC3)CC2)c1
GI50 [1]: < 10 nM
TGI [1]: 5.68 µM

N#Cc1cccc(NC(=O)c2oc3ccccc3c2-c2cnn(-c3ccccc3)c2)c1
GI50 [1]: 406000 nM
TGI [1]: > 500 µM

Oc1cc(O)c2c(=S)cc(-c3ccc(Cl)cc3)oc2c1
GI50 [1]: 260 nM
TGI [1]: 3.1 µM

N#Cc1c(-c2ccc(Cl)cc2)nc(SCc2ccc(F)cc2)nc1N1CCNCC1
GI50 [1]: 1470 nM
TGI [1]: 2.88 µM

COc1ccc(C2=C(c3cc(OC)c(OC)c(OC)c3)C(=O)CC2)cc1
GI50 [1]: 67.3 nM

COc1ccc(/C=C\c2cc(OC)c(OC)c(OC)c2)cc1OC(=O)c1cccc(Cn2cc(CCOC(=O)c3cccc(Cn4nnc5c4C(=O)c4ccccc4C5=O)c3)nn2)c1
GI50 [1]: < 13.8 nM

O=C1/C(=C/c2ccccc2)CCC/C1=C\c1ccccc1
GI50 [1]: 3120 nM
TGI [1]: 19.4 µM

Clc1ccc(-c2nn3ncccc3c2-c2ccnc(Nc3ccccc3)n2)cc1
GI50 [1]: 1190 nM
TGI [1]: 9.63 µM

C=CCN(/C=C1\C(=O)O[C@H](COC)[C@@]2(C)C1=C(O)C(=O)C1=C2[C@H](OC(C)=O)C[C@]2(C)C(=O)CC[C@@H]12)CC=C
GI50 [1]: 77.8 nM
TGI [1]: 0.649 µM

COC(=O)[C@H](CC(C)C)NC(=O)NC(=O)NC(=O)CI
GI50 [1]: 1970 nM
TGI [1]: 4.24 µM

N#Cc1c(-c2ccccc2)cc(-c2ccccc2)n(CCCCC(=O)NO)c1=O
GI50 [1]: 2510 nM
TGI [1]: 11.8 µM

CC(=O)OC[C@]12CC[C@@H]([C@@H](C)C(N)=O)[C@@H]1[C@H]1CC[C@@H]3[C@@]4(C)CC[C@H](OC(C)=O)C(C)(C)[C@@H]4CC[C@@]3(C)[C@]1(C)CC2
GI50 [1]: 3960 nM
TGI [1]: 15.6 µM

COc1ccc(/C=C/c2n(Cc3ccc4ccccc4c3)c3ccccc3[n+]2Cc2ccc3ccccc3c2)cc1
GI50 [2]: 1120 nM
TGI [2]: 2320 nM
GI50 [3]: 268 nM
TGI [3]: 993 nM
GI50 [4]: 583 nM
TGI [4]: 2850 nM
GI50 [5]: 2110 nM
TGI [5]: 5.43 µM
GI50 [6]: 828 nM
TGI [6]: 2110 nM
GI50 [7]: 377 nM
TGI [7]: 1590 nM
GI50 [8]: 818 nM
TGI [8]: 2080 nM
GI50 [9]: 150 nM
TGI [9]: 1480 nM

Cc1nc(/N=C(\N)NC(=O)Nc2ccccc2Cl)sc1C
GI50 [1]: 459 nM
TGI [1]: 4.67 µM

c1ccc(-c2nn(-c3ccccc3)[n+](-c3cccc4ccccc34)n2)cc1
GI50 [1]: 265 nM
TGI [1]: 1.77 µM

COc1c(CNC(=O)CCl)cc2[nH]c(C)cc2c1CNC(=O)CCl
GI50 [1]: 5940 nM
TGI [1]: 25.9 µM

O=C1/C(=C\c2coc3ccccc3c2=O)c2ccccc2N1c1c(Cl)cccc1Cl
GI50 [1]: 2440 nM
TGI [1]: 13.1 µM

CC1=C([Se]CC(OC(=O)[C@@H](CO)NC(=O)OC(C)(C)C)C(=O)NC(C)(C)C)C(=O)c2ccccc2C1=O (some centres not stated)
GI50 [1]: 759 nM
TGI [1]: 2.29 µM

C#COc1cccc(Nc2ncnc3ncc(NC(=O)CCl)cc23)c1
GI50 [1]: > 35400 nM
TGI [1]: > 62.5 µM

CC[CH2][Sn]([Cl])([Cl])[CH2]CC
GI50 [1]: 1920 nM
TGI [1]: 6.96 µM

COc1cc([C@@H]2c3cc4c(cc3[C@H](O)[C@H]3COC(=O)[C@H]23)OCO4)cc(OC)c1OC
GI50 [1]: < 10 nM
TGI [1]: < 0.01 µM

CC1=C(/C=C/C(C)=C/C=C/C(C)=C/C(=O)Nc2ccc(O)cc2)C(C)(C)CCC1
GI50 [1]: 2220 nM
TGI [1]: 8.41 µM

CCO/C=N/C1=C(C#N)C(c2ccc(F)cc2)c2sc3c(CC)cccc3c2O1 (configuration not stated)
GI50 [1]: 421 nM
TGI [1]: 16 µM

N#Cc1c(NC(=O)CN2CCOCC2)sc2c1CCCC2
GI50 [1]: > 21700 nM
TGI [1]: > 25 µM

CNC(C)C(=O)N[C@H](C(=O)N1CCC[C@@H]1CN(CCc1ccccc1)C(=O)C(F)(F)F)[C@H](C)OCC#CC#CCO[C@H](C)[C@H](NC(=O)[C@H](C)NC)C(=O)N1CCC[C@H]1CN(CCc1ccccc1)C(=O)C(F)(F)F (some centres not stated)
GI50 [1]: < 10 nM
TGI [1]: 0.0221 µM

CCOc1ccc(/C=C/[N+](=O)[O-])cc1
GI50 [1]: 1970 nM
TGI [1]: 3.97 µM

COc1cc([C@@H]2c3cc4c(cc3[C@@H](O[C@@H]3O[C@@H]5CO[C@@H](c6cccs6)O[C@H]5[C@H](O)[C@H]3O)[C@H]3COC(=O)[C@H]23)OCO4)cc(OC)c1O
GI50 [1]: 186 nM
TGI [1]: 0.537 µM

COc1ccc(-c2nn(-c3cccc(NC(=O)Nc4cc(C(F)(F)F)cc(C(F)(F)F)c4)c3)cc2-c2ccncc2)cc1Cl
GI50 [1]: 641 nM
TGI [1]: 2.89 µM

CNc1ccc(-c2cc(=O)oc3ccc(Cl)cc23)cc1
GI50 [1]: 219 nM and 84.1 nM
TGI [1]: 0.926 µM and 0.877 µM
